How the values were obtained:
Gli1 = Gli1 expression by qRT-PCR in anti-CD3ε-stimulated murine CD8+ CTLs; format: cell-based
Protocol: FIG. 1. L-type Cav channel agonists increase Gli1 expression and enhance specific cell killing by murine CD8+ CTLs. CD8^+ T cells were isolated from the spleen and inguinal lymph nodes of Rag2^−/− OT-I mice, and CTLs were generated. (A) Cells were restimulated on day 9/10 for 3 hours using plate-bound anti-CD3ε in the presence of indicated concentrations of FPL 64176 or carrier control. RNA was extracted and Gli1 expression was assessed by qRT-PCR. Data is n=3 independent experiments. us=unstimulated cells. (B) An LDH cytotoxicity assay was performed using OT-I CTLs. On day 7, CTLs were co-cultured with Ova peptide-pulsed EL-4 cells in the presence of 10 μM FPL 64176 (squares) or carrier control (circles). Data is n=4 independent experiments. (C) Updated experiment of (A). Data is now n=4 independent experiments. Data is normalised to Tbp as a reference gene. 0h=unstimulated cells. (D) Same data as (B) represented differently. […] Error bars indicate SD. p values were calculated using an unpaired two-tailed Student's t test (C) or a two-way ANOVA (B/D). * indicates p<0.05, ** indicates p<0.01, **** indicates p<0.0001.
FIG. 2. FPL 64176 but not (R)-Baclofen nor Nefiracetam enhance Gli1 expression in murine CD8+ CTLs. Naïve CD8^+ T cells were isolated from the spleens of OT-I Rag2^−/− mice and CTLs were generated. Cells were restimulated using an anti-CD3ε mAb in the presence indicated concentrations of (A) FPL 64176, (B) (R)-Baclofen or (C) Nefiracetam (or carrier control). CTLs were pre-incubated with the relevant pharmacological agents for 40-50 mins prior to stimulation (ensuring sufficient time for the agents, e.g., FPL 64176, to enter the cell. Gli1 expression was assessed by qRT-PCR. Data is n=2 independent experiments. Error bars indicate SD.
To investigate a potential role for L-type Cav channel agonists in modulating CD8+ CTL activation and effector function, CD8+ T cells were isolated from the spleen and inguinal lymph nodes of Rag2−/− OT-I mice and CTLs were generated. […] OT-I mice bear a transgene encoding for a TCR that recognises a chicken ovalbumin (Ova) peptide fragment. Rag2−/− OT-I mice facilitate the isolation of naïve CD8+ T cell populations. Plates were coated using 2.5 μg/mL anti-CD3ε mAb and CD8+ CTLs were stimulated for 3 hours via the TCR in the presence of 5 or 10 μM FPL 64176, an L-type Cav channel agonist, or carrier control. Note that CD8+ CTLs were pre-incubated with FPL 64176 or carrier control for 40-50 mins before stimulation. Gli1 expression was assessed using qRT-PCR.
In brief, naïve CD8+ T cells were isolated from the spleen and inguinal lymph nodes of C57BL/6 wildtype mice and CTLs were generated. […] RNA was extracted from cells and Gli1 expression was assessed by qRT-PCR. […]

K562 target cells = experiment: Flow-cytometry based killing assay, human Vγ9Vδ2 gammadelta T cells with K562 target cells; format: cell-based; settings: 10 μM, killing assessed after 24 hours, vs EtOH carrier control
Protocol: FIG. 12. GLI1 is important for tumour cell killing of human Vγ9Vδ2 gammadelta T cells and treatment with L-type voltage gated Ca2+ channel agonist FPL 64176 increases killing capacity. PBMCs were isolated from Buffy Coats of healthy donors using SepMate PBMC Isolation Tubes. Vγ9Vδ2 expansion was induced by plating PBMCs at 1×10^6 concentration with 1 μM of Zoledronate in the presence of 100 IU/mL IL-2 and 120 IU/mL IL-15. Cells were split every 2-3 days from day 6 until day 20. Killing assays were conducted between day 16-20. (A) Vγ9Vδ2 T lymphocytes were incubated with Gli1/2 inhibitor GANT61 or EToH (carrier control) overnight and subsequently co-cultured with K562 target cells for 24 h at the indicated effector to target ratios and subjected to a flow-cytometry based killing assay. n=1 individual donor. (B) Vγ9Vδ2 cells were pre-incubated with 10 μM FPL 64176 or EToH (carrier control) before being co-cultured with K562 target cells at indicated effector to target ratios and subjected to a flowcytometric cytotoxicity assay in the presence of 10 μM FPL 64176 or EToH (carrier control). Killing was assessed after 24 hours. Tumour cell killing normalised to carrier treated cells at a 10:1 effector:target ratio. n=4 individual healthy donors from 2 independent experiments. […]

COC(=O)c1c(C)[nH]c(C)c1C(=O)c1ccccc1Cc1ccccc1 [FPL 64176]
Gli1 expression following TCR activation (Gli1; anti-CD3ε restimulation 6 hours, indicated concentrations, vs carrier control (FIG. 2)): successfully enhances
Gli1 expression (Gli1; anti-CD3ε stimulation 3 hours, 5 or 10 μM, pre-incubation 40-50 mins, vs carrier control): dose-dependent increase
killing by gammadelta T cells (K562 target cells): increased killing
